These results are taken from ChEMBL document CHEMBL3886818, “Pyrazole carboxamides as Janus kinase inhibitors” (2016).

The target of test [1] is Tyrosine-protein kinase JAK1 (Homo sapiens, UniProt P23458). As to the kind of experiment: Subsequent reagent additions employed an Agilent Bravo.
For test [2], the target named is Tyrosine-protein kinase JAK2 (Homo sapiens, UniProt O60674).
Sequence of Tyrosine-protein kinase JAK2 (O60674 whole entry): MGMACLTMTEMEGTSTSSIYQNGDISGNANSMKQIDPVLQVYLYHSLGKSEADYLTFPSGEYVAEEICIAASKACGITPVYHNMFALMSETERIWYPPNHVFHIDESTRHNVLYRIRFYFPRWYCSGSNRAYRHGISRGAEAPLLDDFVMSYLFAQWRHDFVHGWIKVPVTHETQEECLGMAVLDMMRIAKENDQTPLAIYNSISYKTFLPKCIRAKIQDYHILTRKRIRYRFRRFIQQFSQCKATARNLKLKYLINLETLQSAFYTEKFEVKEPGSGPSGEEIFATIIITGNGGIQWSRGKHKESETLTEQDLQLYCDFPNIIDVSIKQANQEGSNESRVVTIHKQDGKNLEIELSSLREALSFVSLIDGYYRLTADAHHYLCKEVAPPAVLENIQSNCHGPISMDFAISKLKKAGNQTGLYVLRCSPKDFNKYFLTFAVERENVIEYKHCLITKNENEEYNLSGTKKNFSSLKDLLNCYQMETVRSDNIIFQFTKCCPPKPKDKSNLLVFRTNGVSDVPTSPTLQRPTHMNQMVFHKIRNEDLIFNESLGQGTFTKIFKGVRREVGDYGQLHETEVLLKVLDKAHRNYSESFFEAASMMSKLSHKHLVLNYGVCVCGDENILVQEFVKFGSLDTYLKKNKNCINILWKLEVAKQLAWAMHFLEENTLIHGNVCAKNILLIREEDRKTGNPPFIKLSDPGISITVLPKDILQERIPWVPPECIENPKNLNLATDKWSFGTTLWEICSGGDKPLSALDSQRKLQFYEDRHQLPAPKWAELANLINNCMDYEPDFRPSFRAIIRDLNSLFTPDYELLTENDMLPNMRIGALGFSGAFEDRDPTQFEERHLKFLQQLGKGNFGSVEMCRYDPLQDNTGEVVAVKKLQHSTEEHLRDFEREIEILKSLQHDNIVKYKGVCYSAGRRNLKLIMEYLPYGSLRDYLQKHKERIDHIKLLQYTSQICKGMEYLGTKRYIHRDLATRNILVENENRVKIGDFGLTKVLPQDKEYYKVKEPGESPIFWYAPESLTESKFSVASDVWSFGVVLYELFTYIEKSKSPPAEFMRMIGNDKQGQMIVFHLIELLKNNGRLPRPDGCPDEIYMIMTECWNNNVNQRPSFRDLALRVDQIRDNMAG

Sequence of Tyrosine-protein kinase JAK1 (P23458 whole entry): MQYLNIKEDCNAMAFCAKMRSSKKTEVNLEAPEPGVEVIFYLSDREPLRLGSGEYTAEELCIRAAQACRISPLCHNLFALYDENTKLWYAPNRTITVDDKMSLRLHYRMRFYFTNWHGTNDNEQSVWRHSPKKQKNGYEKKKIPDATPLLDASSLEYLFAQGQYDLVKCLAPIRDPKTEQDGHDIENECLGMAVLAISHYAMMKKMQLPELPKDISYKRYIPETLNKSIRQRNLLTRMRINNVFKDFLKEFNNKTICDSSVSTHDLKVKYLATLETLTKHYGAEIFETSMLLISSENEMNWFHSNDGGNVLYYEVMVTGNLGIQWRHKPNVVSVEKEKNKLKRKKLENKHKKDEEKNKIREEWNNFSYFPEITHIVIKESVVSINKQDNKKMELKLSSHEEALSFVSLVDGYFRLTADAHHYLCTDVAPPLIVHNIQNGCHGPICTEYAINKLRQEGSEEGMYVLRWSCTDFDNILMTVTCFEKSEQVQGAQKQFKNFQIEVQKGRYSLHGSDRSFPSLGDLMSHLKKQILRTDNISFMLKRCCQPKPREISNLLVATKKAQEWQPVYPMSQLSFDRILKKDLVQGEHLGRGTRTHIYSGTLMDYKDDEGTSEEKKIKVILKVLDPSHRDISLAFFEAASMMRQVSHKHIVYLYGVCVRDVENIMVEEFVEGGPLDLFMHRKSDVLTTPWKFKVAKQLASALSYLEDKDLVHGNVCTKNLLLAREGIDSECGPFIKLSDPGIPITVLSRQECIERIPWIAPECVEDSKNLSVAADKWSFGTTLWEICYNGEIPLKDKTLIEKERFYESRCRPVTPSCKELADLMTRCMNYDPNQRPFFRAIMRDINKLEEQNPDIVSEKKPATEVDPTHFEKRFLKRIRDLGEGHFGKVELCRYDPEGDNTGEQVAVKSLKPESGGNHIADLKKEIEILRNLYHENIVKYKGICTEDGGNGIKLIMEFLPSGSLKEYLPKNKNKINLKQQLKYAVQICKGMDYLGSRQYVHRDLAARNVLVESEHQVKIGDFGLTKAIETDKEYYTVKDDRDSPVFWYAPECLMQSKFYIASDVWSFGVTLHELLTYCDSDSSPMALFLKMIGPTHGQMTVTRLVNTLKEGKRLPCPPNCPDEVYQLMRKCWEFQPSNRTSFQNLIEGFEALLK

A word on the IC50: it is the concentration needed to halve the response being measured. Lower therefore signals greater potency. For the compound `N#C[C@H]1CCOC[C@@H]1n1cc(C(N)=O)c(Nc2ccc(OC(F)(F)F)cc2)n1` (single isomer, unassigned), the half-inhibitory concentration (IC50) in test [1] was 0.2 nM; in test [2], 1 nM.
